Measurements: ChEMBL document CHEMBL1201862, “PubChem BioAssay data set” (2004)
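Growth conditions: 96-well plates. Treatment: test compound, 48 hours, 5 concentrations. Analysis: linear interpolation between bracketing concentrations; unreached endpoints set to highest concentration. GI50 is the concentration that inhibits growth by half.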 The source made the active and inactive calls. No stated cut-off is given here; in the data, active = GI50 up to about 1.1 µM and inactive = higher.

Tests used:
Assay in all cases: NCI tumour cell line growth inhibition, 48 h
U-251 = tested on: U-251
786-0 = tested on: 786-0
TK-10 = tested on: TK-10
OVCAR-8 = tested on: OVCAR-8
HL-60 = tested on: HL-60
HOP-62 = tested on: HOP-62
UO-31 = tested on: UO-31
M14 = tested on: M14
SNB-19 = tested on: SNB-19
SN12C = tested on: SN12C
OVCAR-3 = tested on: OVCAR-3
NCI/ADR-RES = tested on: NCI/ADR-RES
OVCAR-5 = tested on: OVCAR-5
SK-MEL-28 = tested on: SK-MEL-28
SF-295 = tested on: SF-295
HCC 2998 = tested on: HCC 2998
HOP-92 = tested on: HOP-92
LOX IMVI = tested on: LOX IMVI
NCI-H522 = tested on: NCI-H522
A498 = tested on: A498

Measured: GI50

O=c1[nH]c(=O)n(COCCO)cc1-c1ccccc1
inactive: U-251 > 100 µM | 786-0 > 100 µM | TK-10 > 100 µM | OVCAR-8 > 100 µM | HL-60 > 100 µM | HOP-62 > 100 µM | UO-31 > 100 µM | M14 > 100 µM | SNB-19 > 100 µM | SN12C > 100 µM | OVCAR-3 > 100 µM | NCI/ADR-RES > 100 µM | OVCAR-5 > 100 µM | SK-MEL-28 > 100 µM | SF-295 > 100 µM | HCC 2998 > 100 µM | HOP-92 > 100 µM | LOX IMVI > 100 µM | NCI-H522 > 100 µM

CNC(=O)NCCN1N=C(C)/C(=C\c2ccccc2)CC1=O
inactive: U-251 > 100 µM | 786-0 > 100 µM | TK-10 > 100 µM | A498 > 100 µM | OVCAR-8 > 100 µM | HL-60 > 100 µM | HOP-62 > 100 µM | UO-31 > 100 µM | M14 > 100 µM | SNB-19 > 100 µM | SN12C > 100 µM | OVCAR-3 > 100 µM | OVCAR-5 > 100 µM | SK-MEL-28 > 100 µM | SF-295 > 100 µM | HCC 2998 > 100 µM | HOP-92 > 100 µM | LOX IMVI > 100 µM | NCI-H522 > 100 µM

O=C(c1cccnc1)N1N=C(c2ccccc2)CC1(O)c1cc(F)c(Cl)cc1Cl (configuration not stated)
inactive: U-251 16.4 µM | 786-0 22.1 µM | TK-10 41 µM | OVCAR-8 25.5 µM | HL-60 21.4 µM | HOP-62 16.1 µM | UO-31 25.6 µM | M14 22 µM | SNB-19 40 µM | SN12C 17.2 µM | OVCAR-3 7.31 µM | NCI/ADR-RES 23.5 µM | OVCAR-5 32.8 µM | SK-MEL-28 25.1 µM | SF-295 16.3 µM | HOP-92 20.7 µM | LOX IMVI 15.7 µM | NCI-H522 26.1 µM

CC12CCC(CC1(Cl)Cl)C2 (configuration not stated)
inactive: U-251 > 100 µM | 786-0 > 100 µM | TK-10 > 100 µM | OVCAR-8 > 100 µM | HL-60 > 100 µM | HOP-62 > 100 µM | UO-31 > 100 µM | M14 > 100 µM | SNB-19 > 100 µM | SN12C > 100 µM | OVCAR-3 > 100 µM | NCI/ADR-RES > 100 µM | OVCAR-5 > 100 µM | SK-MEL-28 > 100 µM | SF-295 > 100 µM | HOP-92 > 100 µM | LOX IMVI > 100 µM | NCI-H522 > 100 µM

CC(C)(C)OC(=O)N1CC(C)(C)N2C(=O)C3(CCCO3)C12 (configuration not stated)
inactive: U-251 45.3 µM | 786-0 > 100 µM | TK-10 > 100 µM | A498 > 100 µM | OVCAR-8 > 100 µM | HL-60 > 100 µM | HOP-62 > 100 µM | UO-31 > 100 µM | M14 > 100 µM | SNB-19 > 100 µM | SN12C > 100 µM | OVCAR-3 > 100 µM | OVCAR-5 > 100 µM | SK-MEL-28 > 100 µM | SF-295 > 100 µM | HCC 2998 > 100 µM | HOP-92 > 100 µM | LOX IMVI > 100 µM | NCI-H522 > 100 µM

C=Cc1c(C)c2cc3nc(c4c5[nH]c(cc6nc(cc1[nH]2)C(C)=C6CC)c(C)c5C(=O)C4C(=O)OC)C(CCC(=O)OC)C3C (configuration not stated)
inactive: U-251 > 100 µM | 786-0 > 100 µM | TK-10 > 100 µM | A498 > 100 µM | OVCAR-8 > 100 µM | HL-60 > 100 µM | HOP-62 > 100 µM | UO-31 > 100 µM | M14 > 100 µM | SNB-19 > 100 µM | SN12C > 100 µM | OVCAR-3 > 100 µM | OVCAR-5 > 100 µM | SK-MEL-28 > 100 µM | SF-295 > 100 µM | HCC 2998 59.7 µM | HOP-92 > 100 µM | LOX IMVI > 100 µM | NCI-H522 > 100 µM

O=S1(=O)COc2ccccc2-c2ncncc21
inactive: U-251 > 100 µM | 786-0 > 100 µM | TK-10 > 100 µM | A498 > 100 µM | OVCAR-8 > 100 µM | HL-60 > 100 µM | HOP-62 > 100 µM | UO-31 > 100 µM | M14 > 100 µM | SNB-19 > 100 µM | SN12C > 100 µM | OVCAR-3 > 100 µM | OVCAR-5 > 100 µM | SK-MEL-28 > 100 µM | SF-295 > 100 µM | HCC 2998 > 100 µM | HOP-92 > 100 µM | LOX IMVI > 100 µM | NCI-H522 > 100 µM

Cc1ccc(Nc2nc(O)c3[nH]cnc3n2)cc1CO
inactive: 786-0 15.7 µM | TK-10 18 µM | OVCAR-8 16.6 µM | HL-60 1.7 µM | UO-31 16 µM | M14 12.8 µM | SNB-19 12.2 µM | OVCAR-3 15.7 µM | NCI/ADR-RES 15.4 µM | OVCAR-5 18.9 µM | SK-MEL-28 17.8 µM | SF-295 15.9 µM | HCC 2998 15.5 µM | HOP-92 8.79 µM | LOX IMVI 19.9 µM | NCI-H522 11.6 µM

Oc1nnc(CNc2ccc(Cl)cc2Cl)c2ccccc12
inactive: U-251 18.2 µM | 786-0 16.7 µM | TK-10 20.7 µM | A498 8.24 µM | HL-60 22.5 µM | HOP-62 20.5 µM | UO-31 17.3 µM | M14 32 µM | SNB-19 28.1 µM | SN12C 34.3 µM | OVCAR-3 18.9 µM | OVCAR-5 24.4 µM | SK-MEL-28 22.3 µM | SF-295 20.9 µM | HCC 2998 20 µM | HOP-92 32.7 µM | LOX IMVI 46.3 µM | NCI-H522 18.2 µM

CC(C)=CCN1CC(C)C(=O)Nc2cc(Cl)ccc21 (configuration not stated)
inactive: U-251 27.4 µM | 786-0 19.2 µM | TK-10 19.3 µM | A498 33.3 µM | OVCAR-8 29.7 µM | HL-60 47.8 µM | HOP-62 26.6 µM | UO-31 28.6 µM | M14 23.2 µM | SNB-19 28.5 µM | SN12C 15.9 µM | OVCAR-3 15.1 µM | OVCAR-5 34 µM | SK-MEL-28 43.3 µM | SF-295 27.1 µM | HCC 2998 28.5 µM | HOP-92 10.8 µM | LOX IMVI 16.2 µM | NCI-H522 17.3 µM

CCCCCCNc1n[nH]c(=O)c2c1nnn2Cc1ccccc1
inactive: U-251 > 100 µM | 786-0 > 100 µM | TK-10 > 100 µM | OVCAR-8 > 100 µM | HL-60 > 100 µM | HOP-62 > 100 µM | UO-31 > 100 µM | M14 > 100 µM | SNB-19 > 100 µM | SN12C > 100 µM | OVCAR-3 > 100 µM | NCI/ADR-RES > 100 µM | OVCAR-5 > 100 µM | SK-MEL-28 > 100 µM | SF-295 > 100 µM | HCC 2998 > 100 µM | HOP-92 86.9 µM | LOX IMVI > 100 µM
